Source: patent US20050120392A1, “Transgenic zebrafish models for thrombosis” (priority 2002, published 2005)
“Also recorded” adds a separate entry of the source. Where two headings read alike, the source gives them in different places. Bridge positions count the residues as written; N and C are the ends. Square brackets hold non-standard residues; d marks the D form. Peptide text beside a SMILES is read from it. hArg = N=C(N)NCCCC[C@H](N)C(=O)O; Mpa = O=C(O)CCS

Experiments:
[1] = tested on: P2Y12 mRNA; experiment: P2Y12 morpholino knockdown in ADP thrombosis assay; format: in vivo, zebrafish; conditions: 2.4 ng morpholino, 90 pmol ADP
From the text: (§1) For some experiments (aspirin, Reopro, Integrilin, Ticlopidine and hirudin), larvae were scored according to the number of stationary platelets observed. The counts were done for sections of the larvae (FIG. 2) and later totaled for the larvae. […] In these experiments (morpholino), control larvae (ADP alone) had no moving platelets.
(§2) P2Y12 (5′-[…]-3′) and GPIIb (5′-[…]-3′) morpholinos were purchased from Gene Tools (Philomath, Oreg.). Both of these morpholinos were designed to recognize the first 25 bases of coding sequence. Morpholino—(0.1 mM stock contained in 0.2% phenol red) or mock—(0.2% phenol red) injections were performed in one to four cell stage of homozygous TG(GPIIb:eGFP) zebrafish. These embryos were checked 2-4 hours after injection to eliminate non-fertilized or poorly developed eggs. The embryos were placed into Holtfretter's solution at 27° C. until used in the thrombosis assay (5-6 dpf). For the thrombosis assay, larvae were injected with 90 pmol of ADP, a concentration that immobilized all platelets in the larvae. A positive or negative effect was designated for each larva when there were moving or no moving platelets, respectively, after ADP challenge.

[2] = tested on: ADP-induced platelet aggregation; experiment: In vivo anti-thrombotic assay: ADP-induced aggregate formation in TG(GPIIb:eGFP) larvae; parameters: species or system zebrafish; conditions: for platelet aggregation in zebrafish (summary statement): in vivo
Description: (§3) Only larvae homozygous for the GPIIb-eGFP transgene, were used for the assay. […] Injection of compounds into the heart cavity of larvae was performed using a glass-pulled capillary needle ( 15 μm in diameter at the tip) attached to a microinjector. Phenol red (0.2%) was routinely used for all injections to ensure accurate injection into the heart cavity. All larvae were anaesthetized with tricaine during the injection and returned to fresh fish water before analysis. Fluorescence was observed using a stereomicroscope with a GFP specific filter set. […] The counts were done for sections of the larvae (FIG. 2) and later totaled for the larvae. […] In these experiments (morpholino), control larvae (ADP alone) had no moving platelets.

[3] = tested on: platelets; experiment: In vivo thrombosis assay: thrombotic agent injected into heart cavity of TG(GPIIb:eGFP) larvae; parameters: species or system zebrafish
Description: as §3, with “platelets. TG(GPIIb:GFP) zebrafish were bred to produce homozygous TG(GPIIb:eGFP) embryos. […] At 6 dpf, the larvae have developed a swim bladder and most (or all) of their yolk sac has disappeared.” for “platelets.”

[4] = tested on: zebrafish larvae; format: in vivo
Description: Only larvae homozygous for the GPIIb-eGFP transgene, were used for the assay. Soaking experiments with anti-thrombotic compounds were initiated when larvae were 5 dpf and injections with thrombotic agents were performed the next day. Injection of compounds into the heart cavity of larvae was performed using a glass-pulled capillary needle (˜15 μm in diameter at the tip) attached to a microinjector. Phenol red (0.2%) was routinely used for all injections to ensure accurate injection into the heart cavity. All larvae were anaesthetized with tricaine during the injection and returned to fresh fish water before analysis. Fluorescence was observed using a stereomicroscope with a GFP specific filter set.

[5] = tested on: thrombin-induced platelet aggregation; experiment: In vivo anti-thrombotic assay: thrombin-induced aggregate formation in TG(GPIIb:eGFP) larvae; parameters: species or system zebrafish
Description: as §3

[6] = tested on: GPIIb mRNA; experiment: GPIIb morpholino knockdown in ADP thrombosis assay; format: in vivo, zebrafish; conditions: 2.4 ng morpholino at 1-4 cell stage, 90 pmol ADP at 5-6 dpf, n=34
From the text: as §1, §2

[7] = thrombin 3.38 ng (0.018 NIH unit)
[8] = 5 dpf larvae soaked overnight in varying concentrations, 90 pmol ADP next day
[9] = GPIIb-eGFP transgenic (homozygous), zebrafish, in vivo
[10] = Plavix approximately 0.2-1 μg/ml overnight

## 5′-AGCTGAGCTGCGTTGTTTGCTCCAT-3′ (morpholino, further chemistry not given here) [P2Y12 morpholino]
[1]
  effectiveness (larvae with moving platelets after ADP): 50%

## CCCCS(=O)(=O)N[C@@H](Cc1ccc(OCCCCC2CCNCC2)cc1)C(=O)O [Aggrastat, tirofiban]
[2]; Aggrastat 100 μg/ml soak 24 hours plus 240 ng injected 10 min before ADP
  ADP-induced aggregation: inhibited
[2]; Aggrastat 10-50 μg/ml overnight
  ADP-induced aggregation: ineffective
[2]; Aggrastat soaking alone or injection alone
  ADP-induced aggregate formation: did not antagonize

## thrombin
[3]; [7]
  duration of arrested platelet movement: 30 min
  time after which platelets began to move more freely: ≤ 25 min
[3]; thrombin 3.38 ng (0.018 NIH unit) into heart cavity
  platelet aggregation / arrest after injection: induced platelet aggregation; also recorded: most of the platelets were arrested
[3]; thrombin 3.38 ng (0.018 NIH unit), 5 min after injection, n=15
  platelets arrested: 85-90%
[3]; thrombin 3.38 ng, within an hour after injection
  platelet mobility (recovery): most platelets were mobile

## N=C(N)NCCCC[C@@H]1NC(=O)CCSSC[C@@H](C(N)=O)NC(=O)[C@@H]2CCCN2C(=O)[C@H](Cc2c[nH]c3ccccc23)NC(=O)[C@H](CC(=O)O)NC(=O)CNC1=O [Integrilin, eptifibatide] ([Mpa][hArg]GDWPC-NH2; disulfide 1-7)
[2]; [8]
  ADP-induced microaggregate formation: dose-dependent inhibition; also recorded: dose-dependently prevented
[2]; Integrilin 0.25-1.0 mg/ml overnight soak
  number of platelet aggregates compared to control group: no change
[4]; Integrilin 5 mg/ml
  survival after overnight treatment: all larvae died

## Nc1ncnc2c1ncn2[C@@H]1O[C@H](COP(=O)(O)OP(=O)(O)O)[C@@H](O)[C@H]1O [ADP]
[3]; 90 pmol ADP
  number of macroaggregates compared with phenol red-injected group: not significant
[3]; 90 pmol ADP into heart cavity
  platelet movement after injection: most or all of the platelets within the larvae stopped moving; also recorded: a complete inhibition of platelet movement was observed
  time until platelets stopped moving: ≤ 5 min
[3]; 90 pmol ADP into heart cavity, 6-7 dpf larvae, n=16
  microaggregates found in each injected larva: about 38±3 microaggregates
[3]; 90 pmol ADP, observed for up to 8 hours
  duration of the effect: several hours
[3]; ADP, concentrations lower than 90 pmol
  platelet movement after injection: did not induce a complete inhibition of platelet movement
[4]; 90 pmol ADP into heart cavity
  lethality (beating heart): not lethal
[4]; 180 pmol ADP into heart cavity, n=8
  time within which the larva died: 5 to 10 min

## Clc1ccccc1CN1CCc2sccc2C1 [Ticlopidine]
[4]; [9]
  concentration at which larvae did not survive the overnight treatment: ≥ 10 µM

## CC1CC(=O)NN=C1c1cc(-n2ccnc2)cs1 (centres unmarked) [motapizone]
[2]; motapizone 50 μM overnight soak
  ADP-induced aggregation: Partial inhibition
[2]; motapizone 250 and 100 μM, overnight soak of 5 dpf larvae
  ADP-induced microaggregate formation: effective in blocking
[2]; motapizone injected 5 min before ADP challenge
  action of ADP on platelet aggregation: ineffective
[2]; motapizone, concentrations lower than 50 μM
  ADP-induced aggregation: ineffective
[2]
  platelet aggregation in zebrafish (summary statement): decreases platelet aggregation
[2]; listed as Motapizone
  platelet aggregation in zebrafish (summary statement): effective in reducing

## COC(=O)[C@H](c1ccccc1Cl)N1CCc2sccc2C1 [Plavix, Clopidogrel]
[2]; [10]
  ADP-induced aggregate formation: partial inhibition
[2]
  platelet aggregation in zebrafish (summary statement): effective at inhibiting
[5]; [10]
  aggregation induced by a high concentration of thrombin: not effective
[4]; [9]
  lethal dose: ≥ 5 µg/mL

## Reopro: human/murine chimeric antibody, GPIIb/IIIa antagonist
[2]; Reopro 0.5-5 μg/ml overnight soak plus 120 ng injected 10 min before ADP
  ADP-induced microaggregate formation: dose-dependently inhibited
[2]; Reopro injection alone (120 ng or less), no overnight soak
  ADP-induced aggregation of platelets: did not antagonize
[2]; Reopro overnight soak plus 60 ng injected
  ADP-induced microaggregate formation: no effect

## hirudin
[2]; hirudin 0.029 unit, 90 pmol ADP
  ADP-induced aggregation: did not have any effect
[5]; hirudin 0.029 unit given simultaneously with thrombin 0.018 NIH unit
  thrombin-induced aggregate formation: no aggregation was observed; also recorded: inhibited

## CC(=O)Oc1ccccc1C(=O)O [aspirin, acetylsalicylic acid]
[2]; [8]
  ADP-induced microaggregate formation: prevented
[2]; aspirin 115 μg/ml, no ADP
  microaggregate count within control phenol red-injected larvae: trend toward a decrease
[2]; aspirin 95 and 105 μg/ml, overnight soak before ADP challenge
  ADP-induced microaggregate formation: partially prevented
[2]
  platelet aggregation in zebrafish (summary statement): effective at inhibiting
[4]; aspirin 125 μg/ml
  survival after overnight treatment: the larvae died
[4]; aspirin alone
  effect on platelet movement or development of the larvae: no adverse effect

## CNC[C@H](O)c1ccc(O)c(O)c1 [epinephrine]
[3]; epinephrine 18 pg in conjunction with collagen
  effect of collagen on platelet aggregation: did not enhance

## 5′-GACTGAATTCCAGTTTCTTGTCCAT-3′ (morpholino backbone, further chemistry not given here) [GPIIb morpholino]
[6]
  tested larvae with moving platelets after ADP injection: 76.5%
